The record followed here is patent US20090304692A1, “TRIAZINE COMPOUNDS AS PI3 KINASE AND MTOR INHIBITORS” (Wyeth, priority 2008, published 2009).

The target of test [1] is PI3K-α (Homo sapiens, UniProt P42336). As to the kind of experiment: PI3K-alpha fluorescence polarization assay. The following applies: read-out: IC50 PI3Kα. In general terms: Fluorescence polarisation rises when a labelled molecule tumbles more slowly, as on binding a larger partner.
The target of test [2] is PI3K-γ (Homo sapiens, UniProt P48736). Briefly: PI3K-gamma fluorescence polarization assay. The note with it: read-out: IC50 PI3Kγ.
Chain of PI3K-γ (P48736 whole entry, species assumed): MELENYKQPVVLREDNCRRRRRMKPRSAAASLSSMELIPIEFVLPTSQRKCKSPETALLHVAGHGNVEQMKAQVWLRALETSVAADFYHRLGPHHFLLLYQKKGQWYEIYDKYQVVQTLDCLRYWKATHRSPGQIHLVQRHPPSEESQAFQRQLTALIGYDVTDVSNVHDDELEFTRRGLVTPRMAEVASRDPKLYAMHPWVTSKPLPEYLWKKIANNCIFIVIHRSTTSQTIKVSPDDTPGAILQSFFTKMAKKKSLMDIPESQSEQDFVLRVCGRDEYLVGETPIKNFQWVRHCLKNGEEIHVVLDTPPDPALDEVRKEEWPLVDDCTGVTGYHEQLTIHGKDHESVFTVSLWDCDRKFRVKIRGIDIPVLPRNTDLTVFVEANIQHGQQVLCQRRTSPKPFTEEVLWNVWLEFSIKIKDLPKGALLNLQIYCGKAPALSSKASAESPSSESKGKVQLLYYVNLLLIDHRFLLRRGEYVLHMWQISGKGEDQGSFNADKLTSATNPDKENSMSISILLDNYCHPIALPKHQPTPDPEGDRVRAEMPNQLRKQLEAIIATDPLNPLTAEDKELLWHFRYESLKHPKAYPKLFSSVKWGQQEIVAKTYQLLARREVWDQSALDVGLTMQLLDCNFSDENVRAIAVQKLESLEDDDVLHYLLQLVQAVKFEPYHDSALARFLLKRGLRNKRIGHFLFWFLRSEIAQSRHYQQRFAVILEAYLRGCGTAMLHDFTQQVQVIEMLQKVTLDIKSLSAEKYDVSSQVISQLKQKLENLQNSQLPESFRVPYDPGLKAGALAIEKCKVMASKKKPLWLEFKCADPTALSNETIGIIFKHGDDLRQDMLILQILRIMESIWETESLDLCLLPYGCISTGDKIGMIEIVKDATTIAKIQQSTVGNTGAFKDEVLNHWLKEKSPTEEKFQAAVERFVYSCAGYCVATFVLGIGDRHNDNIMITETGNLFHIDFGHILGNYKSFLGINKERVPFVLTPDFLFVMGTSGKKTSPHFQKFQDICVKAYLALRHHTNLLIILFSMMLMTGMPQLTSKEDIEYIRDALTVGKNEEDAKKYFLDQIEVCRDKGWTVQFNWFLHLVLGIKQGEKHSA
In test [3] the target is Human mTOR (FLAG-TOR) (Homo sapiens, UniProt P42345). As to the kind of experiment: mTOR kinase assay (DELFIA format, purified enzyme). The class given is biochemical. The following applies: read-out: IC50 mTOR.
Chain of Human mTOR (FLAG-TOR) (P42345 1360-2549 limits assumed): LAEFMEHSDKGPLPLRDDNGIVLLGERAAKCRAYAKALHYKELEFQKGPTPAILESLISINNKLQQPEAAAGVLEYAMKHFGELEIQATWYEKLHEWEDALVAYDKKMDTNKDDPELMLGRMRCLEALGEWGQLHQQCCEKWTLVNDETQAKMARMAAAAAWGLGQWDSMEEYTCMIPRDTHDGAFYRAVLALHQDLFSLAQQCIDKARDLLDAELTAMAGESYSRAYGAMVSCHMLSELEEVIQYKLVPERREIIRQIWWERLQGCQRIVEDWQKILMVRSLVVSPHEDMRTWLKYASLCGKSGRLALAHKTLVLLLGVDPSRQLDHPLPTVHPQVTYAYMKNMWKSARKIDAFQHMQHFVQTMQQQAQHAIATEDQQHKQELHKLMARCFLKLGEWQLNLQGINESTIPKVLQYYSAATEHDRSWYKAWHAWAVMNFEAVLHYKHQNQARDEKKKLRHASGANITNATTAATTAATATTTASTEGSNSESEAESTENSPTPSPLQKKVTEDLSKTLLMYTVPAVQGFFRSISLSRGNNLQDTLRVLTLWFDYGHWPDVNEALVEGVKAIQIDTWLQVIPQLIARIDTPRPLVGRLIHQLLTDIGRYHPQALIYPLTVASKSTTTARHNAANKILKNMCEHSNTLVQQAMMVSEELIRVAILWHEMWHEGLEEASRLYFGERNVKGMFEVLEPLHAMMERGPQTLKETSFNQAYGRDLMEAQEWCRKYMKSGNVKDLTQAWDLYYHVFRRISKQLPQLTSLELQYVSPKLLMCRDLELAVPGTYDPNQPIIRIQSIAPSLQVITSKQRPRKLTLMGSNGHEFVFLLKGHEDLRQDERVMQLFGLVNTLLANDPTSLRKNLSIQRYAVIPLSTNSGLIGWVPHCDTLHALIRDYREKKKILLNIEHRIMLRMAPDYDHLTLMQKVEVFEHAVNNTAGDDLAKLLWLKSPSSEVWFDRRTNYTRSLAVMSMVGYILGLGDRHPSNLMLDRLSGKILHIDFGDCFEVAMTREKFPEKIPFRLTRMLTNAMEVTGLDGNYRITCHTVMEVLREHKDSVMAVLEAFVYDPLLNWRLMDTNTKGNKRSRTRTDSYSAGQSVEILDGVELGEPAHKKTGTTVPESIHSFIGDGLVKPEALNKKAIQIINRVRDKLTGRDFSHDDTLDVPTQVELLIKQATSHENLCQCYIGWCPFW
Test [4] relates to human breast MDA-MB-361 tumor cell line. As to the kind of experiment: In vitro cell culture growth assay (MTS), MDA-MB-361. The test is classed as cell-based. The note with it: Homo sapiens, MTS cell growth assay, three days after drug treatment, MDA-MB-361 cells, read-out: IC50 MDA-MB-361. (Formazan colour is commonly taken as a measure of viable cells.)
In test [5] the test system is human prostate PC3-mm2 tumor cell line. Briefly: In vitro cell culture growth assay (MTS), PC3-mm2. The class given is cell-based. The note with it: Homo sapiens, PC3MM2, 72 h, MTS cell growth assay, three days after drug treatment, PC3-mm2 cells; read-out: IC50 PC3-mm2.

Read-outs that look alike come from different tables or passages of the source.

Chain of PI3K-α (P42336 whole entry, species assumed): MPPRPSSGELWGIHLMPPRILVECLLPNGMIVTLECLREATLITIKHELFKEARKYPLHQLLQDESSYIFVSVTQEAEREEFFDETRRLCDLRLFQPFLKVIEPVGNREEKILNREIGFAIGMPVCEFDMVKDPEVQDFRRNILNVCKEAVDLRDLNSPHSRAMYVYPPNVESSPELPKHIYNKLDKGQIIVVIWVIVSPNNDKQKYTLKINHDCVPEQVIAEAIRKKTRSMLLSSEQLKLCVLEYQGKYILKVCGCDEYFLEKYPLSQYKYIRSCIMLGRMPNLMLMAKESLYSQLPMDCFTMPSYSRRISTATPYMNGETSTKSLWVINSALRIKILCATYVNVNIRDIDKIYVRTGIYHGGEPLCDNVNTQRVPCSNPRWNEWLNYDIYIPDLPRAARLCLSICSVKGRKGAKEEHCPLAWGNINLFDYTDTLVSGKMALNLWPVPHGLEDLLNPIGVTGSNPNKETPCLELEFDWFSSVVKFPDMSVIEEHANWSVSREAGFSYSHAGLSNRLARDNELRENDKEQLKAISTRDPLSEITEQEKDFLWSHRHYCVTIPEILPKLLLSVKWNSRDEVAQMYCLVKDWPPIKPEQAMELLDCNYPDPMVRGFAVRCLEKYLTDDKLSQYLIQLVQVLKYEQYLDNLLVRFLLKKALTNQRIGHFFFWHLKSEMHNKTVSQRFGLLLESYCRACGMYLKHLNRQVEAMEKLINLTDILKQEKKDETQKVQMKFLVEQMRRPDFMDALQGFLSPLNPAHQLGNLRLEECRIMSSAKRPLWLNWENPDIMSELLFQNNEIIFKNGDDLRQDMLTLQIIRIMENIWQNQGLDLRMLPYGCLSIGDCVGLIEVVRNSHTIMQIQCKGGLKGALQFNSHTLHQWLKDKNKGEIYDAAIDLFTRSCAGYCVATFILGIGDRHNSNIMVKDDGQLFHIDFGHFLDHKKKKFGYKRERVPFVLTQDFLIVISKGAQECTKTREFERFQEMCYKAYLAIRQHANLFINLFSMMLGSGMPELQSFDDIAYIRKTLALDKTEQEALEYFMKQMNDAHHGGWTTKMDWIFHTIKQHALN
Chain of PI3K-α (P27986 whole entry partner, species assumed): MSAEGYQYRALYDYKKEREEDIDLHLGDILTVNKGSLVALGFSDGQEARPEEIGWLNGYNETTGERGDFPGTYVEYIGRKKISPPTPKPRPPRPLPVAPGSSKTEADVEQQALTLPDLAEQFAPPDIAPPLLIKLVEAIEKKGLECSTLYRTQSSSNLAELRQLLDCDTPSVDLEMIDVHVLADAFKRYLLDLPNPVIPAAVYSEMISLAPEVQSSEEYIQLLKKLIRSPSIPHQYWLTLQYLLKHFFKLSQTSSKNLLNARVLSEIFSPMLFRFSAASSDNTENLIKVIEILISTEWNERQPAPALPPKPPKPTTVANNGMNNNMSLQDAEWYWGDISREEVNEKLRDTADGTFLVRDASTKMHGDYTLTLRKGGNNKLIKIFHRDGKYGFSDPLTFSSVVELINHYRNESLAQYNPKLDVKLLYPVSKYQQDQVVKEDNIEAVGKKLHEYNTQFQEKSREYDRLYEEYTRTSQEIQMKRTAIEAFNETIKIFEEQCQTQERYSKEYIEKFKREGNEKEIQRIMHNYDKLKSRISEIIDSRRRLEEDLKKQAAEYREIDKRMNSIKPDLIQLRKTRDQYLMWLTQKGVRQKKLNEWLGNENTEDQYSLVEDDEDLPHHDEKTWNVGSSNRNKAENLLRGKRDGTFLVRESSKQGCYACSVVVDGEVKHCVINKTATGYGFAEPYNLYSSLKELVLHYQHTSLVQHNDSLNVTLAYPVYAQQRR

Turning to `CCc1nc(-c2ccc(NC(=O)Nc3ccc(C(=O)N4CCN(c5ccccn5)CC4)cc3)cc2)nc(N2CCOCC2)n1` [Example 534, 1-[4-(4-ethyl-6-morpholin-4-yl-1,3,5-triazin-2-yl)phenyl]-3-{4-[(4-pyridin-2-ylpiperazin-1-yl)carbonyl]phenyl}urea], the IC50 (usually the concentration needed to halve the response being measured) in test [1] came out at 2.1 nM; in test [2], 11.1 nM; in test [3], 53.4 nM; in test [4] (72 h), 32.3 nM; in test [5], 73.7 nM.

With `CN(C)CCN(C)C(=O)c1ccc(NC(=O)Nc2ccc(-c3nc(-c4ccccc4)nc(N4CCOCC4)n3)cc2)cc1` [Example 539, N-[2-(dimethylamino)ethyl]-N-methyl-4-({[4-(4-morpholin-4-yl-6-phenyl-1,3,5-triazin-2-yl)phenyl]carbamoyl}amino)benzamide], the IC50 in test [1] was determined as 1.1 nM; in test [2] it was 16 nM; in test [3] it was 0.0085 nM; in test [4] (72 h), 9 nM; in test [5], 161 nM.

In the case of `COC(=O)c1ccc(NC(=O)Nc2ccc(-c3nc(N4CCOC[C@@H]4C)nc(N4CCOC[C@@H]4C)n3)cc2)cc1` [Example 540, methyl 4-{[(4-{4,6-bis[(3S)-3-methylmorpholin-4-yl]-1,3,5-triazin-2-yl}phenyl)carbamoyl]amino}benzoate], the IC50 was 54 nM in test [1]; 121 nM in test [2]; 0.0034 nM in test [3]; 165 nM in test [4] (72 h); 309 nM in test [5].

`O=C(Nc1ccc(C(=O)O)cc1)Nc1ccc(-c2nc(-c3ccccc3)nc(N3CCOCC3)n2)cc1` [Example 541, 4-({[4-(4-morpholin-4-yl-6-phenyl-1,3,5-triazin-2-yl)phenyl]carbamoyl}amino)benzoic acid]: the IC50 was 28 nM in test [1]; 57 nM in test [2]; 17 nM in test [3]; 964 nM in test [4] (MDA-MB-361, 72 h); 1760 nM in test [5].

For the molecule `Cc1ccc(-c2nc(-c3ccc(NC(=O)Nc4ccc(C(=O)NCCN(C)C)cc4)cc3)nc(N3CCOCC3)n2)cc1` [Example 542, N-[2-(dimethylamino)ethyl]-4-[({4-[4-(4-methylphenyl)-6-morpholin-4-yl-1,3,5-triazin-2-yl]phenyl}carbamoyl)amino]benzamide], the IC50 is 8 nM in test [1]; 67 nM in test [2]; 21.5 nM in test [3]; 281 nM in test [4] (72 h); 569 nM in test [5].

With `CN1CCN(C(=O)c2ccc(NC(=O)Nc3ccc(-c4nc(-c5ccccc5)nc(N5CCOCC5)n4)cc3)cc2)CC1` [Example 543, 1-{4-[(4-methylpiperazin-1-yl)carbonyl]phenyl}-3-[4-(4-morpholin-4-yl-6-phenyl-1,3,5-triazin-2-yl)phenyl]urea], the half-inhibitory concentration (IC50) is 3.5 nM in test [1]; 15.5 nM in test [2]; 42 nM in test [3]; less than 31 nM in test [4] (MDA-MB-361, 72 h); 262 nM in test [5].

For the molecule `CN(C)CCNC(=O)c1ccc(NC(=O)Nc2ccc(-c3nc(-c4ccccc4)nc(N4CCOCC4)n3)cc2)cc1` [Example 545, N-[2-(dimethylamino)ethyl]-4-({[4-(4-morpholin-4-yl-6-phenyl-1,3,5-triazin-2-yl)phenyl]carbamoyl}amino)benzamide], the IC50 in test [1] amounted to 4 nM; in test [2], 17 nM; in test [3], 10.9 nM; in test [4] (72 h), 30 nM; in test [5], 219 nM.

Turning to `C[C@H]1COCCN1c1nc(-c2ccc(NC(=O)Nc3ccc(C(=O)NCCN(C)C)cc3)cc2)nc(N2CCOC[C@@H]2C)n1` [Example 546, 4-{[(4-{4,6-bis[(3S)-3-methylmorpholin-4-yl]-1,3,5-triazin-2-yl}phenyl)carbamoyl]amino}-N-[2-(dimethylamino)ethyl]benzamide], the IC50 in test [1] amounted to 3.5 nM; in test [2], 73.5 nM; in test [3], 0.225 nM; in test [4] (72 h), 7 nM; in test [5], 25 nM.

For the molecule `Cc1ccc(-c2nc(-c3ccc(NC(=O)Nc4ccc(C(=O)N5CCN(C(C)C)CC5)cc4)cc3)nc(N3CCOCC3)n2)cc1` [Example 547, 1-{4-[(4-isopropylpiperazin-1-yl)carbonyl]phenyl}-3-{4-[4-(4-methylphenyl)-6-morpholin-4-yl-1,3,5-triazin-2-yl]phenyl}urea], the IC50 in test [1] was 11 nM; in test [2] it was 70 nM; in test [3], 7.75 nM; in test [4] (MDA-MB-361, 72 h), 68 nM; in test [5], 197 nM.

Take `Cc1ccc(-c2nc(-c3ccc(NC(=O)Nc4ccc(C(=O)NCCN5CCCC5)cc4)cc3)nc(N3CCOCC3)n2)cc1` [Example 548, 4-[({4-[4-(4-methylphenyl)-6-morpholin-4-yl-1,3,5-triazin-2-yl]phenyl}carbamoyl)amino]-N-(2-pyrrolidin-1-ylethyl)benzamide]: the IC50 in test [1] stood at 40 nM; in test [2] it was 387 nM; in test [3], 9.75 nM; in test [4] (72 h) it was 524 nM; in test [5] it was 869 nM.

As to `COCCNC(=O)c1ccc(NC(=O)Nc2ccc(-c3nc(-c4ccc(C)cc4)nc(N4CCOCC4)n3)cc2)cc1` [Example 550, N-(2-methoxyethyl)-4-[({4-[4-(4-methylphenyl)-6-morpholin-4-yl-1,3,5-triazin-2-yl]phenyl}carbamoyl)amino]benzamide], the IC50 is 47 nM in test [1]; 374 nM in test [2]; 12.4 nM in test [3]; 315 nM in test [4] (72 h); 711 nM in test [5].

For the molecule `COCCNC(=O)c1ccc(NC(=O)Nc2ccc(-c3nc(-c4ccccc4)nc(N4CCOCC4)n3)cc2)cc1` [Example 551, N-(2-methoxyethyl)-4-({[4-(4-morpholin-4-yl-6-phenyl-1,3,5-triazin-2-yl)phenyl]carbamoyl}amino)benzamide], the IC50 in test [1] turned out to be 24 nM; in test [2], 118 nM; in test [3], 10 nM; in test [4] (72 h), 106 nM; in test [5], 270 nM.

For `O=C(Nc1ccc(C(=O)NCCN2CCCC2)cc1)Nc1ccc(-c2nc(-c3ccccc3)nc(N3CCOCC3)n2)cc1` [Example 552, 4-({[4-(4-morpholin-4-yl-6-phenyl-1,3,5-triazin-2-yl)phenyl]carbamoyl}amino)-N-(2-pyrrolidin-1-ylethyl)benzamide], the IC50 in test [1] was determined as 11.5 nM; in test [2], 127 nM; in test [3], 3.55 nM; in test [4] (72 h), 105 nM; in test [5], 243 nM.

For `Cc1ccc(-c2nc(-c3ccc(NC(=O)Nc4ccc(C(=O)NCCCN(C)C)cc4)cc3)nc(N3CCOCC3)n2)cc1` [Example 554, N-[3-(dimethylamino)propyl]-4-[({4-[4-(4-methylphenyl)-6-morpholin-4-yl-1,3,5-triazin-2-yl]phenyl}carbamoyl)amino]benzamide], the IC50 in test [1] is 15 nM; in test [2], 156 nM; in test [3] it was 11.9 nM; in test [4] (72 h) it was 521 nM; in test [5], greater than 1000 nM.

On to `CN(C)CCCNC(=O)c1ccc(NC(=O)Nc2ccc(-c3nc(-c4ccccc4)nc(N4CCOCC4)n3)cc2)cc1` [Example 556, N-[3-(dimethylamino)propyl]-4-({[4-(4-morpholin-4-yl-6-phenyl-1,3,5-triazin-2-yl)phenyl]carbamoyl}amino)benzamide], for which the IC50 in test [1] was 8.5 nM; in test [2], 54 nM; in test [3], 4.4 nM; in test [4] (72 h), 128 nM; in test [5] it was 379 nM.

Turning to `O=C(Nc1ccncc1)Nc1ccc(-c2nc(-c3cccs3)nc(N3CCOCC3)n2)cc1` [Example 557, 1-{4-[4-morpholin-4-yl-6-(2-thienyl)-1,3,5-triazin-2-yl]phenyl}-3-pyridin-4-ylurea], the concentration for half-maximal inhibition (IC50) is 18 nM in test [1]; 64 nM in test [2]; 8.55 nM in test [3]; 34 nM in test [4] (72 h); 31 nM in test [5].

For the molecule `O=C(Nc1ccc(C(=O)O)cc1)Nc1ccc(-c2nc(-c3cccs3)nc(N3CCOCC3)n2)cc1` [Example 558, 4-[({4-[4-morpholin-4-yl-6-(2-thienyl)-1,3,5-triazin-2-yl]phenyl}carbamoyl)amino]benzoic acid], the IC50 in test [1] turned out to be 17 nM; in test [2], 41 nM; in test [3], 6.1 nM; in test [4] (72 h), 751 nM; in test [5], 939 nM.

For the molecule `CN1CCN(C(=O)c2ccc(NC(=O)Nc3ccc(-c4nc(-c5cccs5)nc(N5CCOCC5)n4)cc3)cc2)CC1` [Example 559, 1-{4-[(4-methylpiperazin-1-yl)carbonyl]phenyl}-3-{4-[4-morpholin-4-yl-6-(2-thienyl)-1,3,5-triazin-2-yl]phenyl}urea], the IC50 in test [1] was 2 nM; in test [2], 13.5 nM; in test [3] it was 10.1 nM; in test [4] (MDA-MB-361, 72 h), 8 nM; in test [5] it was 149 nM.

Consider `COCCNC(=O)c1ccc(NC(=O)Nc2ccc(-c3nc(-c4cccs4)nc(N4CCOCC4)n3)cc2)cc1` [Example 561, N-(2-methoxyethyl)-4-[({4-[4-morpholin-4-yl-6-(2-thienyl)-1,3,5-triazin-2-yl]phenyl}carbamoyl)amino]benzamide], for which the IC50 in test [1] was determined as 11.5 nM; in test [2], 59 nM; in test [3], 6 nM; in test [4] (72 h), 66 nM; in test [5] it was 218 nM.
